Positions count from the first letter of the chain named. Names and notes keep the numbering of the source. “Also recorded” adds a separate entry of the source.
Key:
[1] = system: cerebellar granule neurons (CGN); experiment: Neurite outgrowth of CGN in co-culture with fibroblasts with (LBN) or without (LVN) NCAM expression; format: cell-based, rat; conditions: for NCAM-dependent neurite outgrowth of CGN in co-cultures of CGN and LBN-cells: fibroblasts with NCAM expression (LBN); for NCAM-independent neurite outgrowth of CGN in both cultures: single-neuron primary culture 24 h and co-culture with fibroblasts
Procedure: (§1) Cerebellar granule neurons (CGN) were prepared from Wistar rat pups of postnatal day 3. Cerebellar tissue was dissected in modified Krebs-Ringer solution kept on ice, and treated as described for the hippocampal neurons above. All cell cultures were incubated at 37° C. in a humidified atmosphere containing 5% CO2. All animals were handled in accordance with the national guidelines for animal welfare. Primary cultures of CGN were plated at a density of 100,000 cells/cm^2 on poly-L-lysine coated 8-well permanox slides in Neurobasal-A medium (Gibco, BRL) supplemented with 2% (v/v) B27, 0.5% (v/v) glutamax, 100 U/ml penicillin, 100 μg/ml streptomycin and KCl, making the final concentration of KCl in the medium 40 mM. 24 hours after plating, cytosine-β-D-arabinofuranoside (Ara-C; Sigma-Aldrich) was added to a final concentration of 10 μM to avoid proliferation of glial cells, after which the neurons were allowed to differentiate for further six days at 37° C.
(§2) Ig3 wt, Ig3mut1, and Ig3mut2 were tested at a concentration of 500 μg ml^−1.
(§3) To evaluate the length of neurites of CGN, the neurons were fixed after 24 hours in culture with 4% (v/v) formaldehyde for 20 minutes and thereafter immunostained using primary rabbit antibodies against GAP-43 and Alexa Fluor secondary goat anti-rabbit antibodies. Images of at least 200 neurons for each group in each individual experiment were obtained systematically by using computer assisted fluorescence microscopy
(§4) The total neurite length per cell was analyzed using the software ProcessLength (Rønn et al., 2000). Five independent experiments with the Ig3 module, its mutants, and the individual peptides were performed. In each experiment neurites from 200-300 cells were analyzed. In order to compare results of individual experiments and due to the inherently high variability of cell experiments, the data were normalized setting the difference between the average neurite length of PC12-E2 cells grown on NCAM-140-transfected and vector-transfected fibroblasts to 100%. Statistical evaluations were performed using a two-sided Student's t-test.

[2] = system: cerebellar granule neurons (CGN); experiment: Neurite outgrowth of CGN grown as single neurons in primary culture; format: cell-based, rat; conditions: 24 h, different concentrations of the peptide in growth media
Procedure: as §1, §3, §4

[3] = system: cerebellar granule neurons (CGN); experiment: Neurite outgrowth of CGN in co-culture with fibroblasts with (LBN) or without (LVN) NCAM expression; format: cell-based, rat; conditions: co-cultures of PC12-E2 or CGN cells with fibroblasts expressing NCAM; cell type not specified
[4] = system: NCAM-expressing PC12-E2 cells; experiment: Neurite outgrowth of PC12-E2 cells grown on a confluent monolayer of NCAM-140- or vector-transfected L929 fibroblasts; format: cell-based; conditions: co-culture 24 h; for NCAM-induced neurite outgrowth of PC12-E2 cells grown on NCAM-140-transfected (LBN) fibroblasts: Ig3 wt, Ig3mut1, Ig3mut2 at 500 μg ml^−1
Procedure: The NCAM-expressing pheochromocytoma PC12-E2 cell line (Wu and Bradshaw, 1995) was a gift from Dr. Klaus Seedorf, Hagedorn Research Institute, Denmark. The cells were grown in Dulbecco's Modified Eagle's Medium (DMEM) supplemented with 5% v/v fetal calf serum (FCS) and 10% v/v horse serum (HS), 100 U ml^−1 penicillin, 100 μg ml^−1 streptomycin (all from Gibco BRL) at 37° C. in a humidified atmosphere containing 5% CO2.
The fibroblastoid mouse cell line, L929 (European Cell Culture Collection), was stably transfected with the eukaryotic expression vector pHβ-Apr-1-neo (Gunning et al., 1987) containing a full-length cDNA encoding human 140 kDa NCAM-B or the vector alone. […] The cells were routinely grown at 37° C., 5% CO2 in DMEM supplemented with 10% v/v FCS, 100 U ml^−1 penicillin, and 100 μg ml^−1 streptomycin. For analysis of neurite outgrowth, PC12-E2 cells (8,000 cells per well) were seeded on top of a confluent monolayer of transfected fibroblastoid L929 cells in four-well LabTek Tissue Culture Chamber Slides (NUNC). The cells were grown for 24 h in DMEM supplemented with 1% v/v HS, before analysis.
as §2
To evaluate the length of processes of PC12-E2 cells, the co-cultures were fixed in 4% w/v paraformaldehyde for 25 min. After washing in PBS, cells were blocked with 10% v/v goat serum (DAKO) for 30 min and subsequently incubated for 1 h at room temperature with a mouse monoclonal anti-Thy-1 antibody (Caltag Laboratories) (1:100 in PBS containing 10% v/v goat serum). After washing, cells were incubated for 1 h at room temperature with Alexa-Fluor 568™ goat anti-mouse IgG (Molecular Probes) (1:1000 in PBS containing 10% goat serum). All washes were performed for 10 min in PBS, and repeated three times.
as §4

[5] = system: NCAM-mediated cell aggregation; conditions: Soroka et al., 2002; cited from earlier work
[6] = Dynamic light scattering (DLS) of recombinant proteins in solution; format: physicochemical; conditions: deglycosylated protein, 4 mg ml^−1, PBS pH 7.4, 18° C.
Procedure: Measurements were performed using a DynaPro-MS/X instrument (Protein Solutions) at 18° C. The deglycosylated preparations of Ig1-2-3 (4 mg ml^−1), Ig1-2-3mut (4 mg ml^−1) and Ig3 (10 mg ml^−1) in PBS pH 7.4 were used to determine the molecular weight of the recombinant proteins in solution.

AFSPNGEKLSPNQ (H-AFSPNGEKLSPNQ-NH2) [P1-CD, represents the Ig1-to-Ig3 contact]
NCAM-dependent neurite outgrowth of CGN in co-cultures of CGN and LBN-cells [1]: inhibits; also recorded: capable modulating
NCAM-independent neurite outgrowth of CGN in both cultures [1]: does not affect
neurite outgrowth (differentiation) of single CGN in primary culture [2]: did not stimulate

DVRRGIKKTD (H-DVRRGIKKTD-NH2) [P2-CD, represents the Ig2-to-Ig3 contact, Ig2 module]
NCAM-stimulated neurite outgrowth in co-cultures [3]: did not affect
neurite outgrowth (differentiation) of single CGN in primary culture [2]: very capable stimulators

GEISVGESKFFL (H-GEISVGESKFFL-NH2) [P1-B, covers the B β-strand of Ig1, represents the Ig1-to-Ig2 contact]
NCAM-induced neurite outgrowth of PC12-E2 cells grown on NCAM-140-transfected (LBN) fibroblasts [4]: inhibitory effects comparable to the effect of Ig3 wt; also recorded: inhibited

GRILARGEINFK (rat NCAM Ig2 fragment amino acid residues 172-182) [P2 peptide]
effect on cell aggregation [5]: inhibitory effect

KHIFSDDSSELTIRNVDKNDE (H-KHIFSDDSSELTIRNVDKNDE-NH2) [P3-DE, covers D and E β-strands and E-F loop of the Ig3 module]
NCAM-induced neurite outgrowth of PC12-E2 cells grown on NCAM-140-transfected (LBN) fibroblasts [4]: inhibitory effects comparable to the effect of Ig3 wt; also recorded: inhibited

QEFKEGEDAVIV (H-QEFKEGEDAVIV-NH2) [P2-A′B, represents the Ig2-to-Ig2 contact]
NCAM-dependent neurite outgrowth of CGN in co-cultures of CGN and LBN-cells [1]: inhibits; also recorded: capable modulating
NCAM-independent neurite outgrowth of CGN in both cultures [1]: does not affect
neurite outgrowth (differentiation) of single CGN in primary culture [2]: did not stimulate

QIRGIKKTD (H-QIRGIKKTD-NH2) [P2-EF, represents the Ig2-to-Ig3 contact, Ig2 module]
NCAM-stimulated neurite outgrowth in co-cultures [3]: did not affect
neurite outgrowth (differentiation) of single CGN in primary culture [2]: very capable stimulators

SIHLKVFAK (H-SIHLKVFAK-NH2) [P3-G, C-terminal part of the G β-strand of Ig3]
NCAM-induced neurite outgrowth of PC12-E2 cells grown on NCAM-140-transfected (LBN) fibroblasts [4]: inhibitory effects comparable to the effect of Ig3 wt; also recorded: inhibited
NCAM-stimulated neurite outgrowth in co-cultures [3]: did not affect
neurite outgrowth (differentiation) of single CGN in primary culture [2]: very capable stimulators

TLVADADGFPEP (H-TLVADADGFPEP-NH2) [P3-B, control peptide covering the B β-strand and B-C loop of the Ig3 module, reference compound]
NCAM-induced neurite outgrowth of PC12-E2 cells grown on NCAM-140-transfected (LBN) fibroblasts [4]: not active

B1: Ig3: recombinant Ig3 module of rat NCAM, residues 191-289, produced in P. pastoris (protein)
chain: EAEAYGRILARGEINFKDIQVIVNVPPTVQARQSIVNATANLGQSVTLVCDADGFPEPTMSWTKDGEPIENEEEDDEKHIFSDDSSELTIRNVDKNDEAEYVCI
NCAM-induced neurite outgrowth of PC12-E2 cells grown on NCAM-140-transfected (LBN) fibroblasts [4]: clearly inhibits
NCAM-induced neurite outgrowth of PC12-E2 cells grown on NCAM-140-transfected (LBN) fibroblasts ([4]; listed as Ig3 wt): inhibitory effect
neurite outgrowth of PC12-E2 cells grown on vector-transfected (LVN) fibroblasts ([4]; NCAM-negative fibroblasts): does not affect

B2: Ig3mut1: Ig3 mutant with substitutions R198A, D249G, E287A (E253A) (protein)
chain: B1 chain with R32A, D83G, E87A
NCAM-induced neurite outgrowth of PC12-E2 cells grown on NCAM-140-transfected (LBN) fibroblasts [4]: inactive

B3: Ig1-2-3: recombinant Ig1-2-3 fragment of rat NCAM, residues 1-289 (protein)
chain: RVLQVDIVPSQGEISVGESKFFLCQVAGDAKDKDISWFSPNGEKLSPNQQRISVVWNDDDSSTLTIYNANIDDAGIYKCVVTAEDGTQSEATVNVKIFQKLMFKNAPTPQEFKEGEDAVIVCDVVSSLPPTIIWKHKGRDVILKKDVRFIVLSNNYLQIRGIKKTDEGTYRCEGRILARGEINFKDIQVIVNVPPTVQARQSIVNATANLGQSVTLVCDADGFPEPTMSWTKDGEPIENEEEDDEKHIFSDDSSELTIRNVDKNDEAEYVCIAENKAGEQDASIHLKVFAK
modifications: rat NCAM fragment amino acid residues 20-308 and cloning artifacts
molecular weight in solution by DLS (oligomeric state) [6]: ~78 kDa

B4: Ig1-2-3mut: Ig1-2-3 mutant containing the substitutions E11A, E16A, and K18A (protein)
chain: B3 chain with E13A, E18A, K20A
molecular weight in solution by DLS (oligomeric state) [6]: ~34 kDa

— patent publication US7847058B2, “Method of modulating cell survival, differentiation and/or synaptic plasticity” (priority 2003, dated 2010)
